Measurements from patent US11090304B2 (Amgen Inc., priority 2018, dated 2021).
Like-named read-outs stand apart in the source and are kept apart here.

Tested on: Phosphorylation of ERK1/2 in MIA PaCa-2 cells
Assay: Phospho-ERK1/2 MSD assay in MIA PaCa-2 cells
Type: cell-based
Conditions: Homo sapiens
Experimental: For compounds in Table 89, the following assay conditions were employed:
Phospho-ERK1/2 MSD Assay:
Sixteen hours prior to compound treatment, MIA PaCa-2 or A549 cells were seeded in 96-well cell culture plates at a density of 25,000 cells/well and incubated at 37° C., 5% CO2. A compound dose-response titration was diluted in growth media, added to appropriate wells of a cell culture plate, and then incubated at 37° C., 5% CO2 for 2 or 4 hours (see Table 15). Following compound treatment, cells were stimulated with 10 ng/mL EGF (Roche 11376454001) for 10 min, washed with ice-cold Dulbecco's phosphate-buffered saline, no Ca^2+ or Mg^2+ (ThermoFisher Scientific 14190144), and then lysed in RIPA buffer (50 mM Tris-HCl pH 7.5, 1% Igepal, 0.5% sodium deoxycholate, 150 mM NaCl, and 0.5% sodium dodecyl sulfate) containing protease inhibitors (Roche 4693132001) and phosphatase inhibitors (Roche 4906837001). Phosphorylation of ERK1/2 in compound-treated lysates was assayed using Phospho-ERK1/2 Whole Cell Lysate kits (Meso Scale Discovery K151DWD) according to the manufacturer's protocol. Assay plates were read on a Meso Scale Discovery Sector Imager 6000, and data were analyzed using a 4-parameter logistic model to calculate IC50 values.

[1] = MIA PaCa-2, 2 h, read-out: p-ERK IC50 (2 h; MIA PaCa-2), 2 h compound treatment

| SMILES | IC50 [1] [nM] | IC50 (MIA PaCa-2, 4 h, read-out: p-ERK IC50 (4 h; MIA PaCa-2), 4 h compound treatment) [nM] |
| --- | --- | --- |
| C=CC(=O)N1CCN(c2nc(=O)n(-c3c(C)cnn3C(C)C)c3nc(-c4c(O)cccc4F)c(Cl)cc23)[C@@H](C)C1 [Example 54-70, 6-chloro-7-(2-fluoro-6-hydroxyphenyl)-1-(4-methyl-1-(2-propanyl)-1H-pyrazol-5-yl)-4-((2S)-2-methyl-4-(2-propenoyl)-1-piperazinyl) pyrido[2,3-d]pyrimidin-2(1H)-one] | 88 |  |
| C=CC(=O)N1CCN(c2nc(=O)n(-c3c(C(C)C)ncnc3C(C)C)c3nc(-c4c(O)cccc4F)c(Cl)cc23)[C@@H](C)C1 [Example 55-2] | 25 |  |
| C=CC(=O)N1CCN(c2nc(=O)n(-c3c(C)ncnc3C(C)C)c3nc(-c4c(O)cccc4F)c(Cl)cc23)[C@@H](C)C1 [Example 55-14, 6-chloro-7-(2-fluoro-6-hydroxyphenyl)-1-(4-methyl-6-(2-propanyl)-5-pyrimidinyl)-4-((2S)-2-methyl-4-(2-propenoyl)-1-piperazinyl)pyrido[2,3-d]pyrimidin-2(1H)-one] | 134 |  |
| C=CC(=O)N1CCN(c2nc(=O)n(-c3c(C)ncnc3C(C)C)c3nc(-c4c(O)cccc4F)c(F)cc23)[C@@H](C)C1 [Example 58-11, 6-fluoro-7-(2-fluoro-6-hydroxyphenyl)-1-(4-methyl-6-(2-propanyl)-5-pyrimidinyl)-4-((2S)-2-methyl-4-(2-propenoyl)-1-piperazinyl)pyrido[2,3-d]pyrimidin-2(1H)-one] | 742 |  |
| C=CC(=O)N1CCN(c2nc(=O)n(-c3c(C(C)C)ccnc3C)c3nc(-c4c(O)cccc4F)c(F)cc23)[C@@H](C)C1 [Example 58-15, 6-fluoro-7-(2-fluoro-6-hydroxyphenyl)-1-(2-methyl-4-(2-propanyl)-3-pyridinyl)-4-((2S)-2-methyl-4-(2-propenoyl)-1-piperazinyl)pyrido[2,3-d]pyrimidin-2(1H)-one] | 365 |  |
| C=CC(=O)N1CCN(c2nc(=O)n(-c3c(C)cccc3C(C)C)c3nc(-c4c(O)cccc4F)c(F)cc23)[C@@H](C)C1 [Example 58-18, 6-fluoro-7-(2-fluoro-6-hydroxyphenyl)-1-(2-methyl-6-(2-propanyl)phenyl)-4-((2S)-2-methyl-4-(2-propenoyl)-1-piperazinyl)pyrido[2,3-d]pyrimidin-2(1H)-one] | 272 |  |
| C=CC(=O)N1CCN(c2nc(=O)n(CC3(C(F)(F)F)CC3)c3nc(-c4ccccc4F)c(Cl)cc23)CC1 [Example 60-4, 6-chloro-7-(2-fluorophenyl)-4-(4-(2-propenoyl)-1-piperazinyl)-1-((1-(trifluoromethyl)cyclopropyl)methyl)pyrido[2,3-d]pyrimidin-2(1H)-one] |  | 2250 |
| C=CC(=O)N1CCN(c2nc(=O)n(-c3ccccc3C(C)C)c3nc(N4CCCC4)c(Cl)cc23)[C@@H](C)C1 [Example 69-3, 6-chloro-4-((2S)-2-methyl-4-(2-propenoyl)-1-piperazinyl)-1-(2-(2-propanyl)phenyl)-7-(1-pyrrolidinyl)pyrido[2,3-d]pyrimidin-2(1H)-one] | 1700 |  |
| C=CC(=O)N1CCN(c2nc(C)c(-c3ccccc3C3CC3)c3nc(-c4ccccc4F)c(Cl)cc23)CC1 [Example 85-3, 1-(4-(3-chloro-8-(2-cyclopropylphenyl)-2-(2-fluorophenyl)-7-methyl-1,6-naphthyridin-5-yl)-1-piperazinyl)-2-propen-1-one] | 10000 |  |
| C=CC(=O)N1CCN(c2nc(C)c(-c3ccccc3C(C)C)c3nc(-c4ccccc4F)c(Cl)cc23)[C@@H](C)C1 [Example 85-4, 1-((3S)-4-(3-chloro-2-(2-fluorophenyl)-7-methyl-8-(2-(2-propanyl)phenyl)-1,6-naphthyridin-5-yl)-3-methyl-1-piperazinyl)-2-propen-1-one] | 10000 |  |
| C=CC(=O)N1CCN(c2nc(CO)cc3nc(-c4ccccc4F)c(Cl)cc23)[C@@H](C)C1 [Example 150, 1-((3S)-4-(3-Chloro-2-(2-fluorophenyl)-7-(hydroxymethyl)-1,6-naphthyridin-5-yl)-3-methyl-1-piperazinyl)-2-propen-1-one] | 3330 |  |
